Test results published in patent US12226410B2, “Methods for enhancing cellular clearance of pathological molecules via activation of the cellular protein ykt6” (NORTHWESTERN UNIVERSITY, priority 2019, dated 2025).

Tests used:
[1] = tested on: DASYN53 mice; assay: Behavioral analysis of DASYN53 mice (body weight, Rotarod); format: in vivo; settings: i.p. 0.9 mg/kg
Source text: FIGS. 8A, 8B, 8C, 8D, 8E, and 8F. FTI treatment enhances GCase activity and reduces pathological a-syn in transgenic mice. 8A) GCase activity in the midbrain of FTI (LNK-754)-treated DASYN53 mice (treated as in FIG. 7) (n=4, veh; n=5, FTI). 8B & 8C) Quantification of soluble and insoluble a-syn from midbrains of FTI-treated DASYN53 mice normalized to total protein (CBB). Syn211 is selective for human (hu) a-syn; C20 and syn303 detect mouse (ms) and hu a-syn, (n=3, nTg+Veh; n=4, DASYN53+veh; n=5 DASYN53+FTI). 8D) Midbrain TH levels were quantified by western blot of FTI-treated DASYN53 mice (n=3). 8E) Body weight of FTI-treated DASYN53 mice (n=9, nTg+Veh; n=7, DASYN53+veh; n=7 DASYN53+FTI). 8F) Rotarod test of FTI-treated DASYN53 mice (n=12, nTg+Veh; n=7, DASYN53+veh; n=7 DASYN53+FTI). Values are the mean+/−SEM. *p<0.05, **p<0.01, and *** p<0.001. Student's t-test, panel A; ANOVA with Tukey's posthoc test, panels B-F.
Behavioral analysis of DASYN53 mice. These assays were done as previously described (Tsika et al., 2010). […] Balance and motor behavior testing was done at the end of the injection protocol (between days 24-26) and determined using a Rotarod apparatus (Ugo Basile) with acceleration from 4-40 rpm over a 300 second period. Latency to fall was recorded over 4 trials per mouse, and the data were presented as the average of 3 trials (excluding the first trial as a training session). […]

[2] = Pharmacokinetic studies of the FTI; format: in vivo, mice; settings: single oral dose; data not shown
Source text: Farnesyltransferase inhibition activates ykt6 in vivo and reduces pathological aggregation in mice. We next sought to determine if FTIs could activate ykt6 in the brains of mice by first testing their effect in wild-type animals.

[3] = tested on: ykt6 SNARE complexes; assay: SEC/western blot of ykt6 SNARE complexes in FTI-treated cultures; format: cell-based, human; settings: SH-SY5Y cells, confirmed in A53T iPSn
Protocol: FIGS. 5A, 5B, 5C, 5D, 5E, 5F, and 5G. Reducing farnesyl-ykt6 enhances SNARE assembly and improves the lysosomal targeting of GCase. 5A) Ykt6 membrane shift analysis of SH-SY5Y cells expressing GFP-ykt6 wt or CS (n=3). 5B) Co-IP of GFP-ykt6 and bet1 in A53T iPSn (n=3). 5C) Ykt6 membrane shift analysis in FTI-treated SH-SY5Y wt a-syn cells or A53T iPSn (5 nM farnesyltransferase inhibitors (FTI) LNK-754 (FTI-1) or LNK-3248 (FTI-2) for 5 days) (n=4). Sec22b was measured to assess specificity. 5D) SEC/western blot of FTI-1 treated SH-SY5Y cells. Quantification is shown below. 5E) Co-IP of GFP-ykt6 wt or mutant ykt6-SS, (cannot be palmitoylated or farnesylated) in FTI-treated SHSY5Y cells (5 nM LNK-754, 5d) (n=2). 5F) Immunofluorescence of GCase and LAMP2A in FTI-treated H4 a-syn cells transfected with scrambled (scrb) or ykt6 shRNA (n=3). Scale bar=10 um. 5G) GCase maturation analysis in FTI-treated A53T iPSn by endo H (n=3). Values are the mean+/−SEM, *p<0.05.
Size exclusion chromatography analysis. Cultures or PD brain (cingulate cortex, previously described (Mazzulli et al., 2011)) were homogenized as described above in 1% Triton buffer, centrifuged at 100,000×g for 30 min at 4° C. […]
Treatment of cultures with farnesyltransferase inhibitors. […] Cultures were harvested and analyzed as described in the above sections.

## C#Cc1cccc(-c2cc(=O)n(C)c3ccc([C@](O)(c4ccc(Cl)cc4)c4cncn4C)cc23)c1 [LNK-754]
[1]; day 23-24
  reduction in body weight of DASYN53 mice: rescued
[1]; days 24-26
  reduction in motor performance (Rotarod) of DASYN53 mice: rescued
[2]
  blood-brain-barrier crossing: could rapidly cross the blood-brain-barrier
  time to clearance from plasma: ≤ 20 h
[3]
  levels of ykt6 SNARE complexes by SEC: elevated the levels of ykt6 SNARE complexes
